Assay results published in patent publication US7304093B2, “Ketone compounds and compositions for cholesterol management and related uses” (Esperion Therapeutics, Inc., priority 2000, dated 2007).
Read-outs that look alike come from different tables or passages of the source. One block for each molecule: values may come before it.

How the values were obtained:
primary rat hepatocytes = experiment: Inhibition of lipid synthesis ([1-14C]-acetate incorporation) in primary cultures of rat hepatocytes; assay type: cell-based; conditions: Hepatocyte, 4 h incubation with [1-14C]-acetate
Method: Compounds were tested for inhibition of lipid synthesis in primary cultures of rat hepatocytes. Male Sprague-Dawley rats were anesthetized with intraperitoneal injection of sodium pentobarbital (80 mg/kg). Rat hepatocytes were isolated essentially as described by the method of Seglen (Seglen, P. O. Hepatocyte suspensions and cultures as tools in experimental carcinogenesis. J. Toxicol. Environ. Health 1979, 5, 551-560). Hepatocytes were suspended in Dulbecco's Modified Eagles Medium containing 25 mM D-glucose, 14 mM HEPES, 5 mM L-glutamine, 5 mM leucine, 5 mM alanine, 10 mM lactate, 1 mM pyruvate, 0.2% bovine serum albumin, 17.4 mM non-essential amino acids, 20% fetal bovine serum, […] and 20 μg/mL gentamycin) and plated at a density of 1.5×10^5 cells/cm^2 on collagen-coated 96-well plates. Four hours after plating, media was replaced with the same media without serum. Cells were grown overnight to allow formation of monolayer cultures. Lipid synthesis incubation conditions were initially assessed to ensure the linearity of [1-^14C]-acetate incorporation into hepatocyte lipids for up to 4 hours. Hepatocyte lipid synthesis inhibitory activity was assessed during incubations in the presence of 0.25 μCi [1-^14C]-acetate/well (final radiospecific activity in assay is 1 Ci/mol) and 0, 1, 3, 10, 30, 100 or 300 μM of compounds for 4 hours. At the end of the 4-hour incubation period, medium was discarded and cells were washed twice with ice-cold phosphate buffered saline and stored frozen prior to analysis. To determine total lipid synthesis, 170 μl of MicroScint-E® and 50 μl water was added to each well to extract and partition the lipid soluble products to the upper organic phase containing the scintillant. Lipid radioactivity was assessed by scintillation spectroscopy in a Packard TopCount NXT.

female obese Zucker rats = experiment: Serum lipid and glycemic control variables in chow-fed obese female Zucker rats, daily oral gavage for two weeks; assay type: in vivo, rat; conditions: Rattus norvegicus; for change in vivo at 100 mg/kg: 100 mg/kg daily oral, 100% = 2-fold increase, Table 8; for change in vivo at 30 mg/kg: 30 mg/kg daily oral, Table 9
Method: Ten- to twelve-week old (400-500 grams) female Zucker fatty rats Cr1: (Zuc)-faBR were obtained from Charles River Laboratories. Animals were acclimated to the laboratory environment for seven days. During the acclimation and study period, animals were housed by group in shoebox polycarbonate cages on Cellu-Dri bedding. The temperature and humidity in the animals' quarters (68-78° F.; 30-75% RH) were monitored and the airflow in the room was sufficient to provide several exchanges per hour with 100% fresh filtered air. An automatic timing device provided an alternating 12-hour cycle of light and dark. Rats received pelleted Purina Laboratory Rodent Chow® (5001) prior to and during the drug intervention period except for a 6-hour phase prior to blood sampling. Fresh water was supplied ad libitum via an automatic watering system. Compounds were dissolved, suspended by mixing in a dosing vehicle consisting of 1.5% carboxymethylcellulose/0.2% Tween 20 or 20% ethanol and 80% polyethylene glycol-200 [v/v]. Dose volume of vehicle or vehicle plus each compound was set at 0.25% of body weight in order to deliver the appropriate dose. Doses were administered daily by oral gavage, approximately between 8-10 AM. Regarding blood sampling, animals were fasted for 6 hours prior to all blood collections. Prior to and after 7 days of dosing, a 1.0- to 2.0-mL sample of blood was collected by administering O2/CO2 anesthesia and bleeding from the orbital venous plexus. Following 14 days of dosing, blood was collected by cardiac puncture after euthanasia with CO2. All blood samples were processed for separation of serum and stored at −80° C. until analysis. Commercially available kits were used to determine serum triglycerides (Roche Diagnostic Corporation, Kit No. 148899 or Boehringer Mannheim, Kit No. 1488872), total cholesterol (Roche Diagnostic Corporation, Kit No. 450061), non-esterified fatty acids (Wako Chemicals, Kit No. 994-75409) and β-hydroxybutyrate (Wako Chemicals, Kit No. 417-73501 or Sigma Kit. No. 310-0) on a Hitachi 912 Automatic Analyzer (Roche Diagnostic Corporation). In some instances, an in-house cholesterol reagent was used to determine total serum cholesterol levels. Serum lipoprotein cholesterol levels were determined by lipoprotein profile analysis. Lipoprotein profiles were analyzed using gel-filtration chromatography on a Superose 6HR (1×30 cm) column equipped with on-line detection of total cholesterol as described by Kieft et al (Kieft, K. A.; Bocan, T. M.; Krause, B. R. Rapid on-line determination of cholesterol distribution among plasma lipoproteins after high-performance gel filtration chromatography. J. Lipid Res. 1991, 32, 859-866.). The total cholesterol content of each lipoprotein was calculated by multiplying the independent values determined for serum total cholesterol by the percent area of each lipoprotein in the profile. The percent body weight gain and the ratio of liver to body weight is also determined. Selected data are shown as absolute values or as a percent change of the pretreatment values in Tables 8 and 9.
Select compounds (214c, 210c, and 210g) were further evalutated in the Zucker rat by performing a full dose response and measuring additional scrum variables including markers for diabetes (Tables 10-12).

[1] = 168 h, 1 wk, read-out: HDL-Cholesterol, Percent Change from Pre-Treatment
[2] = 168 h, 1 wk, read-out: NonHDL-Cholesterol, Percent Change from Pre-Treatment
[3] = 168 h, 1 wk, read-out: TG, Percent Change from Pre-Treatment
[4] = 336 h, 2 wk, read-out: HDL-Cholesterol, Percent Change from Pre-Treatment
[5] = 336 h, 2 wk, read-out: NonHDL-Cholesterol, Percent Change from Pre-Treatment
[6] = 336 h, 2 wk, read-out: TG, Percent Change from Pre-Treatment
[7] = Table 7, ranges: confidence of estimate insufficient to assign a value

SMILES: CC(C)(CCCCCCCC(=O)CCCCCCCC(C)(C)C(=O)O)C(=O)O [Compound 107n, 10-Oxo-2,2,18,18-tetramethyl-nonadecanedioic acid]
IC50 (primary rat hepatocytes; Table 6): 10 µM
change in vivo at 100 mg/kg (female obese Zucker rats; [1]): 44%
change in vivo at 100 mg/kg (female obese Zucker rats; [2]): -80%
change in vivo at 100 mg/kg (female obese Zucker rats; [3]): -85%
change in vivo at 100 mg/kg (female obese Zucker rats; [4]): 86%
change in vivo at 100 mg/kg (female obese Zucker rats; [5]): -45%
change in vivo at 100 mg/kg (female obese Zucker rats; [6]): -64%
melting point: 74 to 77 °C

SMILES: CC(C)(CCCCC(=O)CCCC(C)(C)C(=O)O)C(=O)O [Compound 225, 2,2,11,11-Tetramethyl-6-oxododecanedioc acid]
IC50 (primary rat hepatocytes; [7]): 8 µM
change in vivo at 30 mg/kg (female obese Zucker rats; [1]): 7%
change in vivo at 30 mg/kg (female obese Zucker rats; [2]): -17%
change in vivo at 30 mg/kg (female obese Zucker rats; [3]): -2%
change in vivo at 30 mg/kg (female obese Zucker rats; [4]): 4%
change in vivo at 30 mg/kg (female obese Zucker rats; [5]): 92%
change in vivo at 30 mg/kg (female obese Zucker rats; [6]): -22%
melting point: 72 to 73 °C

SMILES: Cc1ccc(C(C)(CCCCC(=O)CCCCC(C)(C(=O)O)c2ccc(C)cc2)C(=O)O)cc1 (stereo not shown) [Compound 210e, 2,12-Dimethyl-7-oxo-2,12-di-p-tolyltridecanedioic acid]
IC50 (primary rat hepatocytes; [7]): 100 to 300 µM
change in vivo at 30 mg/kg (female obese Zucker rats; [1]): 0%
change in vivo at 30 mg/kg (female obese Zucker rats; [2]): 0%
change in vivo at 30 mg/kg (female obese Zucker rats; [3]): -11%
change in vivo at 30 mg/kg (female obese Zucker rats; [4]): 10%
change in vivo at 30 mg/kg (female obese Zucker rats; [5]): 47%
change in vivo at 30 mg/kg (female obese Zucker rats; [6]): 12%
melting point: 48 to 50 °C

The next lines start with results.

melting point: 53 to 55 °C
SMILES: CC(C)(CCCCC(=O)CCCCC1(C(=O)O)CCC1)C(=O)O [Compound 107e, 11-(1-Carboxycyclobutyl)-2,2-dimethyl-7-oxoundecanoic acid]
IC50 (primary rat hepatocytes; Table 6): 6 µM
change in vivo at 100 mg/kg (female obese Zucker rats; [1]): 30%
change in vivo at 100 mg/kg (female obese Zucker rats; [2]): 4%
change in vivo at 100 mg/kg (female obese Zucker rats; [3]): -54%
change in vivo at 100 mg/kg (female obese Zucker rats; [4]): 60%
change in vivo at 100 mg/kg (female obese Zucker rats; [5]): 28%
change in vivo at 100 mg/kg (female obese Zucker rats; [6]): -51%

melting point: 122 to 123 °C
SMILES: O=C(CCCCCC1(C(=O)O)CC1)CCCCCC1(C(=O)O)CC1 [Compound 107l, 1-[11-(1-Carboxycyclopropyl)-6-oxoundecyl]-1-cyclopropanecarboxylic acid]
IC50 (primary rat hepatocytes; Table 6): 0.5 µM
change in vivo at 100 mg/kg (female obese Zucker rats; [1]): 136%
change in vivo at 100 mg/kg (female obese Zucker rats; [2]): -92%
change in vivo at 100 mg/kg (female obese Zucker rats; [3]): -95%
change in vivo at 100 mg/kg (female obese Zucker rats; [4]): 171%
change in vivo at 100 mg/kg (female obese Zucker rats; [5]): -83%
change in vivo at 100 mg/kg (female obese Zucker rats; [6]): -94%
